{"source": "patent US20190269792A1", "about": "“NANOPARTICLE COMPOSITIONS COMPRISING CD38 AND METHODS OF USE THEREOF” (Washington University, priority 2016, published 2019)", "key": {"MM cells [1]": {"test_system": "MM cells", "test": "Effect of macropinocytosis and endocytosis inhibitors on survival of MM cells by MTT", "format": "cell-based", "conditions": "pre-incubation at 37° C. for 30 min; cytochalasin D 1 μM, chlorpromazine 2 μM, nystatin 0.5 μg/ml, EGA 2.5 μM"}, "MM cells [2]": {"test_system": "MM cells", "test": "Anti-CD38 chitosan NPs uptake mechanism (endosome co-localization, uptake inhibitors, 4° C.)", "format": "cell-based, human", "conditions": "30 min pre-incubation with inhibitor (cytochalasin D 1 μM, chlorpromazine 2 μM, nystatin 0.5 μg/ml, EGA 2.5 μM), then 2 h NPs", "procedure": "Endocytosis is critical to the uptake of NPs in order to allow toxic effects in cells. MM cells were plated on glass bottom 8 well chambers and allowed to adhere overnight. CellLight Early Endosomes-GFP BacMam 2.0 reagent (targeting rab5) was added to result in a final concentration of 30 particles per cells and allowed to incubate with the cells for 18-24 h. Cells were washed twice with PBS and incubated with AF633 anti-CD38 chitosan NPs for 24 h. Cells were again washed twice with PBS and allowed to stay in phenol red free medium for imaging live under culture conditions of 37° C. and 5% CO2 at specified time points using FV1000 confocal microscope. To understand the process of internalization of anti-CD38 chitosan NPs, MM cells were pre-treated with inhibitors of macropinocytosis and phagocytosis (cytochalasin D), clathrin-mediated endocytosis (chlorpromazine), caveolae-mediated endocytosis (nystatin), or late endocytosis (EGA), prior to exposure to anti-CD38 chitosan NPs. […] MM cells (1×10^6 cell/ml) were pre-incubated at 37° C. with no inhibitor (Ctrl), cytochalasin D 1 μM, chlorpromazine 2 μM, nystatin 0.5 μg/ml, and EGA 2.5 μM or at 4° C. as control of the active uptake for 30 min. Cells were washed with PBS and incubated with AF633 anti-CD38 chitosan NPs for 2 h. Then, cells were washed and analyzed by flow cytometry for the fluorescence intensity of AF633."}, "MM.1S cells": {"test_system": "MM.1S cells", "test": "Boron cellular accumulation by ICP-OES", "format": "cell-based, human", "conditions": "100 nM, 1.5 h", "procedure": "MM.1S cells (40×10^6 cell/ml) were cultured with vehicle (control), BTZ as a free drug (100 nM), and anti-CD38 chitosan NPs loaded with BTZ equivalent amounts to 100 nM for 1.5 h. After the treatment the cells were spun down, washed, and cell pellet was digested in nitric acid. After dilution with deionized water, samples were microwave digested and then analyzed by ICP-OES for boron content."}, "[3]": {"test": "Side effects in vivo (weight loss, hair loss, histological tissue damage)", "set-up": "species or system SCID mice", "conditions": "BTZ 1 mg/kg once a week", "procedure": "(§1) MM1s-GFP-Luc cells were injected into forty female, 7-week old SCID mice i.v. at the concentration of 2×10^6 cells per mouse and tumor progression was evaluated using BLI. After 4 weeks, tumor bearing mice were randomized into 4 groups of 10 animals each and treated with: (i) vehicle, (ii) BTZ as a free drug (1 mg/kg once a week), (iii) non-targeted NPs loaded with BTZ equivalent amounts to 1 mg/kg (once a week), (iv) and anti-CD38 NPs loaded with BTZ equivalent amounts to 1 mg/kg (once a week). Tumor progression was followed in the 4 groups twice a week (for 5 weeks) by BLI; moreover the survival, weight, and general health of the animals was followed. In addition, 3 mice were taken from each group 3 weeks after the beginning of the treatment, and specimens of the BM, blood smear, spleen, liver, kidney, brain, spinal-cord and intestine were fixed and pathologically evaluated for treatment efficacy and histological tissue damage."}, "PB MNCs": {"test_system": "PB MNCs", "test": "Cell viability of normal PB MNCs by MTT", "format": "cell-based, human", "conditions": "BTZ 5 nM or equivalent, 48 h", "procedure": "MM cell lines (MM.1S, H929, and RPMI8826) and PB MNCs were cultured with vehicle (control), BTZ as a free drug (5 nM), empty NPs, non-targeted NPs loaded with BTZ equivalent amounts to 5 nM, and anti-CD38 NPs loaded with BTZ equivalent amounts to 5 nM for 48 h. Cell viability was assessed using MTT solution followed by absorbance reading at 570 nm using a spectrophotometer as previously described. Briefly, the MTT solution was added to the cells 48 h after starting the treatment, and 2-4 h later the stop solution was added."}, "MM.1S in 3DTEBM cultures": {"test_system": "MM.1S in 3DTEBM cultures", "test": "Survival of MM cells in 3D tissue engineered bone marrow (3DTEBM)", "format": "cell-based, human", "conditions": "BTZ 10 nM or equivalent, 48 h", "procedure": "MM.1S (pre-labeled with Invitrogen cell tracers DiO (10 μg/ml) for 1 h) were cultured in relevant three-dimensional tissue engineered bone marrow (3DTEBM) cultures through crosslinking of fibrinogen as previously described. The effect of vehicle (control), BTZ as a free drug (10 nM), empty chitosan NPs, non-targeted chitosan NPs loaded with BTZ equivalent amounts to 10 nM, and anti-CD38 chitosan NPs loaded with BTZ equivalent amounts to 10 nM for 48 h was analyzed by flow cytometry. Higher BTZ doses (10 nM) are used in the 3DTEBM based on the known drug resistance of the cells in 3DTEBM cultures. Cell proliferation assays were performed by digestion of 3DTEBM cultures with type I collagenase (25 mg/ml for 2-3 h at 37° C.), followed by flow cytometry analysis using MACSQuant Analyzer (Miltenyi Biotec), and the data was analyzed using FlowJo program v10 (Ashland, Oreg.). Moreover, 3DTEBM cultures treated with AF633 anti-CD38 chitosan NPs loaded with BTZ equivalent amounts to 10 nM were imaged to determine NPs distribution by confocal microscopy after 24 h incubation."}, "MM1s-GFP-Luc cells": {"test_system": "MM1s-GFP-Luc cells", "test": "MM tumor progression and survival in vivo", "set-up": "species or system SCID mice", "conditions": "BTZ 1 mg/kg once a week", "procedure": "as §1"}, "[4]": {"test_system": "MM cell lines (MM.1S, H929, and RPMI8826)", "test": "Cell viability of MM cells by MTT", "format": "cell-based, human", "conditions": "BTZ 5 nM or equivalent, 48 h"}, "H929 cells [5]": {"test_system": "H929 cells", "test": "Cell cycle by propidium iodide flow cytometry", "format": "cell-based, human", "conditions": "BTZ 5 nM or equivalent, 48 h", "procedure": "Briefly, cells were washed, fixed with 70% ethanol, and washed again with PBS. RNA was degraded by incubation in RNAase for 30 minutes at 37° C., and the DNA was stained with PI solution for 10 minutes, then cells were analyzed by flow cytometry."}, "proteasome": {"test_system": "proteasome", "test": "Proteasome activity assay (AMC-tagged peptide substrate) in extracts of treated MM cells", "format": "cell-based, human", "conditions": "for effect of inhibition of macropinocytosis or endocytosis pathways on proteasome activity: free drug 5 nM with uptake inhibitors", "procedure": "Cell extracts were prepared in NP-40 lysis buffer from control and treated cells (BTZ as a free drug (5 nM), empty chitosan NPs, non-targeted chitosan NPs loaded with BTZ equivalent amounts to 5 nM, and anti-CD38 NPs loaded with BTZ equivalent amounts to 5 nM) retrieved after 2 h treatment with BTZ. Proteasome activity was determined using the AMC-tagged peptide substrate in a Proteasome Activity Assay Kit (abcam, Cambridge, Mass., USA) according to the manufacturer's protocol. Fluorescence was determined in a SpectraMax i3 Multi-Mode Detection Platform (Molecular Devices, Sunnyvale, Calif., USA) and proteasome activity was expressed as the amount of proteasome which generates 1.0 nmol of AMC per minute at 37° C.\nProteasome activity inhibition was also measured in combination with inhibitors of macropinocytosis and phagocytosis (cytochalasin D), clathrin-mediated endocytosis (chlorpromazine), caveolae-mediated endocytosis (nystatin), or late endocytosis (EGA), prior to exposure to anti-CD38 chitosan NPs loaded with BTZ equivalent amounts to 5 nM. MM cells were pre-incubated at 37° C. with no inhibitor (Ctrl), cytochalasin D 1 μM, chlorpromazine 2 μM, nystatin 0.5 μg/ml, and EGA 2.5 μM for 30 min. Cells were washed with PBS and incubated with anti-CD38 chitosan NPs loaded with BTZ equivalent amounts to 5 nM, then proteasome Activity Assay Kit was followed as in the previous experiment."}, "[6]": {"test_system": "MM.1S cells co-culture with MM-derived MSP-1 stromal cell line", "test": "Cell adhesion-mediated drug resistance, co-culture with MSP-1 stroma", "format": "cell-based, human", "conditions": "BTZ 5 nM or equivalent, 48 h", "procedure": "In addition, cell proliferation assay of MM.1S cells co-culture with or without MM-derived MSP-1 stromal cell line with vehicle (control), BTZ as a free drug (5 nM), empty chitosan NPs, non-targeted chitosan NPs loaded with BTZ equivalent amounts to 5 nM, and anti-CD38 chitosan NPs loaded with BTZ equivalent amounts to 5 nM for 48 h was analyzed."}, "[7]": {"test_system": "MM cells cultured in normoxic (21% O2) or hypoxic (1% O2) conditions", "test": "Hypoxia-mediated drug resistance", "format": "cell-based, human", "conditions": "BTZ 5 nM or equivalent, 48 h", "procedure": "Furthermore, the effect of vehicle (control), BTZ as a free drug (5 nM), empty chitosan NPs, non-targeted chitosan NPs loaded with BTZ equivalent amounts to 5 nM, and anti-CD38 chitosan NPs loaded with BTZ equivalent amounts to 5 nM on proliferation of MM cells cultured in normoxic (21% O2) or hypoxic (1% O2) conditions for 48 h was measured."}, "H929 cells [8]": {"test_system": "H929 cells", "test": "Apoptosis by Annexin V / PI flow cytometry", "format": "cell-based, human", "conditions": "BTZ 5 nM or equivalent, 48 h", "procedure": "H929 cells (1×10^6 cell/ml) were cultured with vehicle (control), BTZ as a free drug (5 nM), empty chitosan NPs, non-targeted chitosan NPs loaded with BTZ equivalent amounts to 5 nM, and anti-CD38 chitosan NPs loaded with BTZ equivalent amounts to 5 nM for 48 h, and apoptosis was analyzed as previously described. Cells were washed and resuspended in 1× Annexin binding buffer, incubated with Annexin V for 15 minutes followed by staining with PI for extra 15 minutes, 1× binding buffer was added, and the cells were analyzed with flow cytometry."}}, "data": [{"smiles": "Cc1cccc(C)c1NC(=O)N/N=C/c1ccc(Br)cc1", "note": "[EGA]", "values": [{"measurement": "effect on cell survival", "setting": "MM cells [1]", "value": "no effect on cell survival"}, {"measurement": "decrease of the uptake of the anti-CD38 NPs", "setting": "MM cells [2]", "value": "about 25%"}]}, {"smiles": "CN(C)CCCN1c2ccccc2Sc2ccc(Cl)cc21", "note": "[chlorpromazine]", "values": [{"measurement": "decrease of the uptake of the anti-CD38 NPs", "setting": "MM cells [2]", "value": "about 25%"}]}, {"smiles": "C=C1[C@@H](C)[C@H]2[C@H](Cc3ccccc3)NC(=O)[C@]23[C@H](OC(C)=O)/C=C/[C@@](C)(O)C(=O)[C@@H](C)C/C=C/[C@H]3[C@@H]1O", "note": "[cytochalasin D]", "values": [{"measurement": "effect on cell survival", "setting": "MM cells [1]", "value": "no effect on cell survival"}, {"measurement": "decrease of the uptake of the anti-CD38 NPs", "setting": "MM cells [2]", "value": "did not affect"}]}, {"smiles": "CC(C)C[C@H](NC(=O)[C@H](Cc1ccccc1)NC(=O)c1cnccn1)B(O)O", "note": "[free BTZ, bortezomib]", "values": [{"measurement": "accumulation of BTZ (boron content) in cells versus control", "setting": "MM.1S cells", "value": "very similar to the levels measured in control"}, {"measurement": "hair loss compared to the vehicle-treated group", "setting": "[3]", "value": "significant hair loss"}, {"measurement": "effect on survival of PB MNCs", "setting": "PB MNCs", "value": "no effect"}, {"measurement": "killing of MM cells in the 3DTEBM", "setting": "MM.1S in 3DTEBM cultures", "value": 8, "unit": "%"}, {"measurement": "day by which all the group died", "setting": "MM1s-GFP-Luc cells", "value": "≤ 29", "unit": "days"}, {"measurement": "tumor size by BLI compared to vehicle treatment", "setting": "MM1s-GFP-Luc cells; 5 weeks", "value": "efficacious in reducing tumor size"}, {"measurement": "killing of MM cells", "setting": "[4]", "value": 20, "unit": "%"}, {"measurement": "effect on cell cycle", "setting": "H929 cells [5]", "value": "induced G0-G1 arrest"}, {"measurement": "proteasome activity inhibition", "setting": "proteasome; BTZ 5 nM or equivalent, 2 h, MM cells (Experiment 7)", "value": 50, "unit": "%"}, {"measurement": "inhibition in the proteasome activity", "setting": "proteasome; BTZ 5 nM or equivalent, without inhibition of the uptake routs (Experiment 8)", "value": "about 40%"}, {"measurement": "effect of inhibition of macropinocytosis or endocytosis pathways on proteasome activity", "setting": "proteasome", "value": "led to any significant effect"}, {"measurement": "effect of inhibition of macropinocytosis or endocytosis pathways on proteasome activity", "setting": "proteasome; listed as BTZ", "value": "did not induce any change"}, {"measurement": "cell adhesion-mediated drug resistance (stroma co-culture versus mono-culture)", "setting": "[6]", "value": "induced resistance"}, {"measurement": "hypoxia-mediated drug resistance (1% O2 versus 21% O2)", "setting": "[7]", "value": "induced resistance"}, {"measurement": "early apoptosis, late apoptosis and cell death", "setting": "H929 cells [8]", "value": "induced increase early apoptosis and no effect on late apoptosis and death"}]}, {"smiles": "C[C@@H]1[C@H](O)[C@@H](C)/C=C/C=C/CC/C=C/C=C/C=C/C=C/C(O[C@H]2O[C@H](C)[C@@H](O)[C@H](N)[C@@H]2O)CC2O[C@](O)(CC(O)C(O)CCC(O)CC(O)CC(O)CC(=O)O[C@H]1C)CC(O)C2C(=O)O", "note": "(stereo partly shown) [nystatin]", "values": [{"measurement": "effect on cell survival", "setting": "MM cells [1]", "value": "no effect on cell survival"}, {"measurement": "decrease of the uptake of the anti-CD38 NPs", "setting": "MM cells [2]", "value": "about 25%"}]}]}
